“Also recorded” adds a separate entry of the source.
Key:
lung tissue RARs = experiment: SENCAR mouse lung tissue RARs, dietary RA; format: in vivo
Description: (§1) SENCAR mice (30) were divided into six experimental groups.
(§2) Tissues were collected, frozen in dry ice and kept at −70° C. until used. 500 mg aliquots were diced in small pieces and homogenized in 300 μl of cold PBS, using the hand held homogenizer for 2˜3 minutes. Sample and washes were centrifuged at 5000×g for 20 minutes. The pellet was suspended in 400 μl of ice-cold Buffer A [2 μl 0.5M EDTA, 10 μl 100 mM EGTA, 50 μl 100MM PMSF, 10 μl 1M DTT, 10 ml (10 mM HEPES pH 7.9+10 mM KCl)], and left at ice temperature for 15 minutes. 25 μl of 10% solution of NP-40 was added and samples were mixed in a vortex vigorously for 10 seconds. Samples were centrifuged at 14,000×g for 1 minute at 4° C. and the pellet treated once more in this fashion (resuspended etc.). The supernatant was removed and 100 μl of ice-cold Buffer C [4 μl 0.5M EDTA, 20 μl 100 mM EGTA, 20 μl 100 mM PMSF, 2 μl 1M DTT, 2 ml (20 mM HEPES pH 7.9+0.4M NaCl)] was added. Pellets were resuspended by tapping gently on the bottom of the Eppendorf tubes. Samples were rocked vigorously in a bucket of ice on an orbital shaker for 30 minutes. Samples were centrifuged at 14,000×g for 5 minutes at 4° C.
(§3) Samples were prepared by adding one part of the Sample Buffer to one part of the sample and mixing well. Samples were heated at 95° C. for 5 minutes to induce denaturation. […]

RAR γ = experiment: Time course of dietary RA effect on SENCAR mouse liver RAR γ; format: in vivo; conditions: pharmacological dietary RA over physiological RA, day 1
Description: as §1, §2, §3

RARα [1] = experiment: Western blot of SENCAR mouse liver, dietary RA 75 weeks, RAR α; format: in vivo; conditions: for RARα densitometry of Western blots: liver
Description: as §2
(§4) Samples were prepared by adding one part of the Sample Buffer to one part of the sample and mixing well. Samples were heated at 95° C. for 5 minutes to induce denaturation. 5 μl of Rainbow Standard and 5 μl of Biotinylated Molecular Marker were added to parallel wells. 20 μg protein per sample was loaded in each lane. Electrophoresis was performed with voltage set at 125V for about 1˜1.5 hours. Gel transfer was executed at 25V for 2 hours. The membrane was stained in Ponceau S. for 5 minutes and destained with one wash of 5% acetic acid. The membrane was then washed in TBS solution until the staining disappeared. Membranes were incubated in 1 ml blocking solution and 9 ml TBS for 60 minutes. Membranes were incubated in 1 ml of blocking solution and 19 ml TBS along with 20 μl primary antibody solution overnight (dilution of 1:1000). Membranes were washed in PBS-Tween 20, 3 times for 10 minutes each. […]

RARα [2] = experiment: Immunohistochemical analysis of SENCAR mouse liver, dietary RA; format: in vivo; conditions: pharmacological RA diet compared to physiological RA, 75 weeks
Description: Liver tissue (approximately 300 mg) was fixed in 10% formalin, embedded in paraffin and 5 μm sections were used for immunohistochemistry. Staining for RAR was similar to our previously described protocol {8656}. ABC kit Mouse/Rabbit IgG and DAB Substrate kit were used (Vector Laboratories Inc., 30 Ingold Road Burlingame, Calif.).

RARγ = experiment: Western blot of SENCAR mouse liver, dietary RA 75 weeks, RAR γ; format: in vivo; conditions: for RARγ densitometry of Western blots: liver
Description: as §2, §4

RAR β = experiment: Time course of dietary RA effect on SENCAR mouse liver RAR β; format: in vivo; conditions: pharmacological dietary RA over physiological RA, day 1
Description: as §1, §2, §3

RAR α = experiment: Time course of dietary RA effect on SENCAR mouse liver RAR α; format: in vivo; conditions: pharmacological dietary RA over physiological RA, day 1
Description: as §1, §2, §3

RARβ = experiment: Western blot of SENCAR mouse liver, dietary RA 75 weeks, RAR β; format: in vivo; conditions: for RARβ densitometry of Western blots: liver
Description: as §2, §4

TGase II = TGase II activity in cultured human breast cancer MCF-7 cells; format: cell-based
Description: Cells were harvested and Transglutaminase II activity was measured as described below. Nebulizer solution, inhalation procedures, details of animal housing are described below.
Cultured cells were placed in 100 μl scraping buffer [A: 2800 μl (400 μl 0.5M Na-Phosphate, 500 μl 0.01M EDTA, 100 μl 1M DTT, 9 ml PBS total 10 ml)+B:700 μl (10 μl 20 mg/ml PMSF 790 μl PBS total 800 μl)] for each dish. Cells were broken by a sonicator and kept in ice until used. TGase II assay was conducted as described below and previously {8217}.
Enzyme assay mixtures were prepared by adding 80 μl of SUBSTRATE mixture (322.8 μl H2O, 120 μl 0.5M NaBorate, 60 μl 0.01M EDTA, 60 μl 0.1M CaCl2, 6 μl 1M DTT, 240 μl dimethyl casein, 30 μl Triton X-100, 1.21 μl [^3H]-Putrescine, 120 μl Putrescine) to 20 μl sample, 20 μl scraping buffer for blank control, 20 μl (18 μl scraping buffer+2 μl TGase II) for positive control. Samples were mixed in 15 ml tubes, the tubes were shaken before putting them into a 28° C. water bath for 30 minutes. Reactions were slowed down in an ice bath. 80 μl of the incubation mixture was adsorbed onto paper disks. These were immediately dropped into cold 10% TCA (0.1% Putrescine) and washed with agitation for 7 minutes, followed by 2 additional washes with 5% TCA (0.05% putrescine) for 5-7 minutes, and once more with cold (−20° C.) 95% ethanol for 5 minutes. Paper disks were dried and placed into 5 ml Aquasol, and counted in a Liquid Scintillation Counter. Protein concentration determination was conducted by the Bradford method.

[3] = dietary RA 30 μg/g vs 3 μg/g diet, male SENCAR mice

CC1=C(/C=C/C(C)=C/C=C/C(C)=C/C(=O)O)C(C)(C)CCC1 [RA, all-trans-retinoic acid]
effect of dietary RA on lung tissue RARs (lung tissue RARs; long term feeding of 30 μg/g diet, SENCAR mouse): failed to induce | effect of dietary RA on lung tissue RARs (lung tissue RARs; time course, 1 to 28 days, 30 μg/g diet, not shown): without any measurable effect; also recorded: no effect | stimulation of liver RAR (third named, γ) (RAR γ): 2.1 fold | upregulation of liver RAR (first named, α) (RARα [1]; [3]): 21.8 fold | RARα densitometry of Western blots (RARα [1]; RA diet 3 μg/g): 12.1+/−7.2 IDV | RARα densitometry of Western blots (RARα [1]; RA diet 30 μg/g): 264+/−21.3 IDV | RARα immunohistochemical staining in liver nuclei (RARα [2]): striking increase of RAR expression; also recorded: marked increase in staining | upregulation of liver RAR (third named, γ) (RARγ; [3]): 12.5 fold | RARγ densitometry of Western blots (RARγ; RA diet 3 μg/g): 23.1+/−6.7 IDV | RARγ densitometry of Western blots (RARγ; RA diet 30 μg/g): 288+/−17.4 IDV | stimulation of liver RAR (second named, β) (RAR β): 4 fold | stimulation of liver RAR (first named, α) (RAR α): 2 fold | upregulation of liver RAR (second named, β) (RARβ; [3]): 13.5 fold | RARβ densitometry of Western blots (RARβ; RA diet 3 μg/g): 18.9+/−7.4 IDV | RARβ densitometry of Western blots (RARβ; RA diet 30 μg/g): 254+/−31.9 IDV | TGase II Activity (TGase II; MCF-7 cells treated at 10^−6 M for 72 hours, DMSO control 0.183): 1.359+/−0.098 picomoles/μg protein/30 minutes | stimulating TGase II activity (TGase II; MCF-7 cells, 10^−6 M, 72 hours, over DMSO): 7.4 Fold

Source: patent US20030216471A1, “Retinoid formulations for aerosolization and inhalation” (priority 2003, published 2003)
